From PubChem BioAssay (NCI)
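Grown in 96-well plates, cells were treated for 48 hours with each compound at five concentrations. Insufficient inhibition: endpoint recorded as highest concentration tested. GI50: concentration for 50% inhibition of growth. The concentration for full growth arrest is given as TGI.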

What was measured:
Test in all cases: DTP human tumour cell line panel, 48 h
BT-549 breast = system: BT-549 breast
NCI-H23 lung = system: NCI-H23 lung
NCI-H522 lung = system: NCI-H522 lung
RPMI-8226 leukemia = system: RPMI-8226 leukemia
HCT-116 colon = system: HCT-116 colon
786-0 renal = system: 786-0 renal
HT29 colon = system: HT29 colon
MOLT-4 leukemia = system: MOLT-4 leukemia
OVCAR-5 ovarian = system: OVCAR-5 ovarian
SR leukemia = system: SR leukemia
OVCAR-3 ovarian = system: OVCAR-3 ovarian
KM12 colon = system: KM12 colon
SK-MEL-5 melanoma = system: SK-MEL-5 melanoma
DU-145 prostate = system: DU-145 prostate
HCT-15 colon = system: HCT-15 colon
UO-31 renal = system: UO-31 renal
ACHN renal = system: ACHN renal
SK-MEL-28 melanoma = system: SK-MEL-28 melanoma
A549 NSCLC = system: A549 NSCLC
HS 578T breast = system: HS 578T breast
U251 CNS = system: U251 CNS
MCF7 breast = system: MCF7 breast
A498 renal = system: A498 renal
M14 melanoma = system: M14 melanoma
UACC-62 melanoma = system: UACC-62 melanoma
K-562 leukemia = system: K-562 leukemia
SW-620 colon = system: SW-620 colon
SN12C renal = system: SN12C renal
CCRF-CEM leukemia = system: CCRF-CEM leukemia
PC-3 prostate = system: PC-3 prostate
NCI/ADR-RES ovarian = system: NCI/ADR-RES ovarian
CAKI-1 renal = system: CAKI-1 renal
MDA-N = system: MDA-N
SK-OV-3 ovarian = system: SK-OV-3 ovarian
HOP-62 NSCLC = system: HOP-62 NSCLC
COLO 205 colon = system: COLO 205 colon
LOX IMVI melanoma = system: LOX IMVI melanoma
OVCAR-4 ovarian = system: OVCAR-4 ovarian
IGROV1 ovarian = system: IGROV1 ovarian
SF-268 CNS = system: SF-268 CNS
MALME-3M melanoma = system: MALME-3M melanoma
SK-MEL-2 melanoma = system: SK-MEL-2 melanoma
MDA-MB-231 breast = system: MDA-MB-231 breast
OVCAR-8 ovarian = system: OVCAR-8 ovarian
RXF 393 renal = system: RXF 393 renal
HOP-92 NSCLC = system: HOP-92 NSCLC
MDA-MB-435 = system: MDA-MB-435
HCC-2998 colon = system: HCC-2998 colon
NCI-H226 lung = system: NCI-H226 lung
SF-295 CNS = system: SF-295 CNS
HL-60(TB) leukemia = system: HL-60(TB) leukemia
EKVX NSCLC = system: EKVX NSCLC
UACC-257 melanoma = system: UACC-257 melanoma
SNB-75 CNS = system: SNB-75 CNS
SNB-19 CNS = system: SNB-19 CNS
NCI-H460 lung = system: NCI-H460 lung
TK-10 renal = system: TK-10 renal

## Cc1cc(-c2nc3c(F)cccc3s2)ccc1N
BT-549 breast
  TGI: > 100 µM
NCI-H23 lung
  TGI: > 100 µM
NCI-H522 lung
  TGI: > 100 µM
RPMI-8226 leukemia
  TGI: > 100 µM
HCT-116 colon
  TGI: > 100 µM
786-0 renal
  TGI: > 100 µM
HT29 colon
  TGI: > 100 µM
MOLT-4 leukemia
  TGI: 63.9 µM
OVCAR-5 ovarian
  GI50: 1.68 µM
  TGI: 76.2 µM
SR leukemia
  TGI: > 100 µM
OVCAR-3 ovarian
  TGI: > 100 µM
KM12 colon
  TGI: > 100 µM
SK-MEL-5 melanoma
  TGI: > 100 µM
DU-145 prostate
  TGI: > 100 µM
HCT-15 colon
  TGI: > 100 µM
UO-31 renal
  TGI: > 100 µM
ACHN renal
  TGI: > 100 µM
SK-MEL-28 melanoma
  TGI: > 100 µM
A549 NSCLC
  TGI: > 100 µM
HS 578T breast
  TGI: > 100 µM
U251 CNS
  TGI: > 100 µM
MCF7 breast
  TGI: > 100 µM
A498 renal
  TGI: > 100 µM
M14 melanoma
  TGI: > 100 µM
UACC-62 melanoma
  TGI: > 100 µM
K-562 leukemia
  TGI: > 100 µM
SW-620 colon
  TGI: > 100 µM
SN12C renal
  TGI: > 100 µM
CCRF-CEM leukemia
  TGI: > 100 µM
PC-3 prostate
  TGI: > 100 µM
NCI/ADR-RES ovarian
  TGI: > 100 µM
CAKI-1 renal
  TGI: > 100 µM
MDA-N
  TGI: > 100 µM
SK-OV-3 ovarian
  TGI: > 100 µM
HOP-62 NSCLC
  TGI: > 100 µM
COLO 205 colon
  TGI: > 100 µM
LOX IMVI melanoma
  TGI: > 100 µM
OVCAR-4 ovarian
  GI50: 20.9 µM
  TGI: > 100 µM
IGROV1 ovarian
  GI50: 22.7 µM
  TGI: > 100 µM
SF-268 CNS
  TGI: > 100 µM
MALME-3M melanoma
  TGI: > 100 µM
SK-MEL-2 melanoma
  TGI: > 100 µM
MDA-MB-231 breast
  TGI: > 100 µM
OVCAR-8 ovarian
  TGI: > 100 µM
RXF 393 renal
  TGI: > 100 µM
HOP-92 NSCLC
  TGI: > 100 µM
MDA-MB-435
  TGI: > 100 µM
HCC-2998 colon
  GI50: > 100 µM
  TGI: > 100 µM
NCI-H226 lung
  GI50: 5.45 µM
  TGI: > 100 µM
SF-295 CNS
  TGI: > 100 µM
HL-60(TB) leukemia
  TGI: > 100 µM
EKVX NSCLC
  TGI: 31.5 µM
UACC-257 melanoma
  TGI: > 100 µM
SNB-75 CNS
  TGI: > 100 µM

## Cc1sc2nc3n(c(=O)c2c1C)N=CN(c1ccc(Cl)cc1)C3
BT-549 breast
  TGI: > 100 µM
NCI-H23 lung
  TGI: > 100 µM
NCI-H522 lung
  TGI: > 100 µM
RPMI-8226 leukemia
  TGI: > 100 µM
HCT-116 colon
  TGI: > 100 µM
786-0 renal
  TGI: > 100 µM
HT29 colon
  TGI: > 100 µM
MOLT-4 leukemia
  TGI: > 100 µM
OVCAR-5 ovarian
  TGI: > 100 µM
SR leukemia
  TGI: > 100 µM
OVCAR-3 ovarian
  TGI: > 100 µM
KM12 colon
  TGI: > 100 µM
SK-MEL-5 melanoma
  TGI: > 100 µM
DU-145 prostate
  TGI: > 100 µM
HCT-15 colon
  TGI: > 100 µM
UO-31 renal
  TGI: > 100 µM
ACHN renal
  TGI: > 100 µM
SK-MEL-28 melanoma
  TGI: > 100 µM
A549 NSCLC
  TGI: > 100 µM
SNB-19 CNS
  TGI: > 100 µM
U251 CNS
  TGI: > 100 µM
A498 renal
  TGI: > 100 µM
M14 melanoma
  TGI: > 100 µM
UACC-62 melanoma
  TGI: > 100 µM
K-562 leukemia
  TGI: > 100 µM
SW-620 colon
  TGI: > 100 µM
SN12C renal
  TGI: > 100 µM
CCRF-CEM leukemia
  TGI: > 100 µM
PC-3 prostate
  TGI: > 100 µM
NCI/ADR-RES ovarian
  TGI: > 100 µM
NCI-H460 lung
  TGI: > 100 µM
CAKI-1 renal
  TGI: > 100 µM
MDA-N
  TGI: > 100 µM
SK-OV-3 ovarian
  TGI: > 100 µM
HOP-62 NSCLC
  TGI: > 100 µM
TK-10 renal
  TGI: > 100 µM
COLO 205 colon
  TGI: > 100 µM
LOX IMVI melanoma
  TGI: > 100 µM
OVCAR-4 ovarian
  TGI: > 100 µM
IGROV1 ovarian
  TGI: > 100 µM
SF-268 CNS
  TGI: > 100 µM
MALME-3M melanoma
  TGI: > 100 µM
SK-MEL-2 melanoma
  TGI: > 100 µM
MDA-MB-231 breast
  TGI: > 100 µM
OVCAR-8 ovarian
  TGI: > 100 µM
RXF 393 renal
  TGI: > 100 µM
HOP-92 NSCLC
  TGI: > 100 µM
MDA-MB-435
  TGI: > 100 µM
HCC-2998 colon
  TGI: > 100 µM
NCI-H226 lung
  TGI: > 100 µM
SF-295 CNS
  TGI: > 100 µM
EKVX NSCLC
  TGI: > 100 µM
UACC-257 melanoma
  TGI: > 100 µM
SNB-75 CNS
  TGI: > 100 µM
